Reference: PMC10744391, “Sulfated Triterpene Glycosides from the Far Eastern Sea Cucumber Cucumaria djakonovi: Djakonoviosides C1, D1, E1, and F1; Cytotoxicity against Human Breast Cancer Cell Lines; Quantitative Structure–Activity Relationships” (Marine Drugs, 2023)
“Also recorded” adds a separate entry of the source. Counter-ions that a name gives are not always drawn. Like-named read-outs stand apart in the source and are kept apart here.

Legend:
[1] = test system: T-47D human breast cancer cell line; assay: cells; format: cell-based; conditions: for IC50: Homo sapiens, T47D, read-out: Cytotoxicity, IC50, T-47D
MCF-7 cells [2] = assay: Wound scratch migration assay, MCF-7; format: cell-based, human; conditions: MCF-7, concentrations below EC50, 72 h
Procedure: (§1) Attached to special migration plate plastic bottom MCF-7 or MDA-MB-231 cells were separated by a silicone insert (Culture-insert 2 Well 24, ibiTreat). After removing an insert, gap between the cells was 500 ± 50 μm. Cell debris and floating cells were deleted by washing twice with PBS; 10 μM of 5 mM initial solution of CFDA SE ((5,6)-carboxyfluorescein succinimidyl ester) (LumiTrace CFDA SE kit, Lumiprobe, Moscow, Russia) in DMSO was dissolved in PBS and added to cells for 5 min at 37 °C; after washing twice with PBS, the fresh culture medium was added. Then, cells were treated with various concentrations of glycosides or culture medium only (vehicle control) and left for 24 and 72 h. Cell migration into the wound area was observed under a fluorescence microscope (MIB-2-FL, LOMO, Russia) with objective 10× magnification.

MDA-MB-231 cells [3] = assay: Colony formation (clonogenic) assay, MDA-MB-231; format: cell-based, human; conditions: 10 days; for inhibitory effect on the formation of colonies: MDA-MB-231, concentration 2 μM
Procedure: (§2) The influence of glycosides on colony formation by MCF-7 or MDA-MB-231 cells was tested by the clonogenic assay. Cell density: 1 × 10^3 for MDA-MB-231 and 0.3 × 10^3 for MCF-7 cells per well; cell culture: MEM media, 10% FBS, 10,000 U/mL of penicillin, and 10,000 μg/mL of streptomycin supplemented or not (control) with different concentration of glycosides; incubation conditions: 10 days, 37 °C, atmosphere with 5% CO2; obtained: visible to eye colonies (at least 50 cells per colony); fixation with methanol (25 min); staining with 0.5% solution of crystal violet (25 min); washing and air-drying of plates.

in vitro = format: cell-based; conditions: human; for IC50: MTT, 24 h incubation, read-out: Cytotoxicity, IC50, MCF-10A
[4] = test system: MCF-7 human breast cancer cell line; assay: cells; format: cell-based; conditions: for IC50: read-out: Cytotoxicity, IC50, MCF-7; for Selectivity Index (SI), MCF-7: ratio of IC50 for healthy (MCF-10A) and cancer cells
MCF-7 cells [5] = assay: Colony formation (clonogenic) assay, MCF-7; format: cell-based, human; conditions: MCF-7, concentration 2 μM, 10 days
Procedure: as §2

[6] = test system: triple-negative MDA-MB-231 human breast cancer cell line; assay: cells; format: cell-based; conditions: for IC50: Homo sapiens, read-out: Cytotoxicity, IC50, MDA-MB-231; for Selectivity Index (SI), MDA-MB-231: ratio of IC50 for healthy (MCF-10A) and cancer cells
human erythrocytes = assay: Hemolytic activity against human erythrocytes; format: cell-based; conditions: human erythrocytes; for HC50: Erythrocyte, 1 h at 37 °C, dose causing lysis of 50% erythrocytes, read-out: ED50, Erythrocytes (hemolytic activity); for hemolytic activity (in words): concentration range up to 50 µM
Procedure: Human blood (B(III) Rh+) was used to obtain erythrocytes by centrifuging 450× g three times for 5 min with phosphate-buffered saline (PBS) (pH 7.4) at 4 °C on centrifuge LABOFUGE 400R (Heraeus, Hanau, Germany). Ice-cold PBS (pH 7.4) was used for resuspension of erythrocytes residue to a final optical density of 1.5 at 700 nm, which was kept on ice. Then, 20 µL of tested compound solution or control—djakonovioside A1 [5]—were added to 180 µL of erythrocyte suspension in V-bottom 96-well plates and exposed for 1 h at 37 °C. Next, centrifugation at 900× g for 10 min on laboratory centrifuge LMC-3000 (Biosan, Riga, Latvia), led to layers’ separation, and 100 µL of supernatant was carefully decanted and transferred into new flat-plate each. The values of erythrocyte lysis were measured on microplate photometer Multiskan FC (Thermo Fisher Scientific, Waltham, MA, USA) at λ = 570 nm as hemoglobin concentration in supernatant. The effective dose, causing lysis of 50% erythrocytes (ED50), was calculated with SigmaPlot 14.0 software. All the experiments were carried out in triple repetitions, p ≤ 0.05.

[7] = test system: human breast cancer cell lines MCF-7, T-47D and MDA-MB-231; assay: Cytotoxic activity (MTT assay), statements on the human breast cancer cell lines together; format: cell-based
Description: Human erythrocytes were purchased from the Station of Blood Transfusion, Vladivostok. Human mammary epithelial cell line MCF-10A CRL-10317, human breast cancer cell lines T-47D HTB-133, MCF-7 HTB-22, and MDA-MB-231 CRM-HTB-26 were received from ATCC (Manassas, VA, USA). Culturing conditions: medium of RPMI-1640 with 1% penicillin/streptomycin (Biolot, St. Petersburg, Russia) and 10% fetal bovine serum (FBS) (Biolot, St. Petersburg, Russia) for T-47D cell line; Minimum Essential Medium (MEM) with 1% penicillin/streptomycin sulfate (Biolot, St. Petersburg, Russia) and FBS (Biolot, St. Petersburg, Russia) to a final concentration of 10% for MCF-7 and MDA-MB-231 cells; DMEM/F12 medium with 10% FBS, 20 ng/mL EGF, […], 100 ng/mL cholera toxin, 10 μg/mL insulin, and 1% penicillin/streptomycin (Bioinnlabs, Russia) for MCF-10A cell line.
Methodology: to each well of 96-well plates, the cell suspension (180 µL) with solution (20 µL) of tested glycoside in the certain concentration was placed (MCF-10A, MCF-7, T-47D, and MDA-MB-231—7 × 10^3 cells per well) and incubated in the atmosphere with 5% CO2 at 37 °C for 24 h. The times of incubation of cucumarioside A2-5 (6) and djakonoviosides C1 (1) and E1 (3), at concentrations of 0.5–12.0 μM with T-47D, MCF-7, or MDA-MB-231 cells, were 24, 48, and 72 hrs. Then, the solutions of tested compounds with medium were replaced by 100 µL of fresh medium, and 10 µL of 3-(4,5-dimethylthiazol-2-yl)-2,5-diphenyltetrazolium bromide (MTT) (PanReac, AppliChem, Darmstadt, Germany) stock solution (5 mg/mL) was added to each well and incubated for 4 h, followed by the addition of 100 µL of SDS-HCl solution (1 g SDS/10 mL d-H2O/17 µL 6 N HCl) and further incubated for 18 h. Multiskan FC microplate photometer (Thermo Fisher Scientific, Waltham, MA, USA) was used to measure the absorbance of the converted dye formazan at 570 nm. The concentration caused 50% cell metabolic activity inhibition (IC50), which expresses the cytotoxic activity of each glycoside. The experiments were conducted in triplicate, p ≤ 0.05.

MDA-MB-231 cells [8] = assay: Wound scratch migration assay, MDA-MB-231; format: cell-based, human; conditions: MDA-MB-231, concentration 1 μM, 24 h of incubation
Procedure: as §1

[9] = Homo sapiens, MCF7, MTT, 24 h incubation
[10] = MDA-MB-231, MTT, 24 h incubation

SMILES | IC50 ([1]; 24 h) [µM] | inhibitory effect on the formation of colonies (MDA-MB-231 cells [3]) | IC50 at 24 h (in vitro) [µM] | IC50 ([4]; Homo sapiens, MCF7, 24 h) [µM] | Selectivity Index (SI), MCF-7 [4] | IC50 ([6]; MDA-MB-231, 24 h) [nM] | Selectivity Index (SI), MDA-MB-231 [6] | HC50 (human erythrocytes) [µM] | hemolytic activity (in words) (human erythrocytes) | IC50 ([1]; MTT, 24 h incubation) [µM] | IC50 (in vitro) [µM] | IC50 [4, 9] [µM] | IC50 [6, 10] [nM] | other results
COC1C(O)C(COS(=O)(=O)O)OC(OC2C(O)C(COS(=O)(=O)O)OC(OC3C(C)OC(OC4C(OC5CCC6(C)C7=CCC8(C)C(C(C)=O)CCC8(C)C7CCC6C5(C)C)OCC(OS(=O)(=O)O)C4O)C(OC4OCC(O)C(O)C4O)C3O)C2O)C1O (stereo not drawn) (hydrate or solvate) [isokoreoside A] | – | – | – | – | – | – | – | – | – | – | – | – | – | melting point: 215 °C
C=C(C)CCCC1(C)OC(=O)C23CCC4C(=CCC5C(C)(C)C(OC6OCC(OS(=O)(=O)O)C(O)C6OC6OC(CO)C(OC7OC(COS(=O)(=O)O)C(O)C(OC8OC(COS(=O)(=O)O)C(O)C(OC)C8O)C7O)C(O)C6O)CCC45C)C2(C)CC(OC(C)=O)C13 [djakonovioside E1, 3β-O-[6-O-sodium sulfate-3-O-methyl-β-D-glucopyranosyl-(1→3)-6-O-sodium sulfate-β-D-glucopyranosyl-(1→4)-β-D-glucopyranosyl-(1→2)-4-O-sodium sulfate-β-D-xylopyranosyl]-16β-acetoxyholosta-7,25-dien] | > 50 | 35.68 ± 2.00 % of the control | > 50 | 1.52 ± 0.14 | >32.89 | 2190 ± 170 | >22.83 | 21.7 ± 0.94 | weakly hemolytic; also recorded: low hemolytic activity | – | – | – | – | migration of MCF-7 cells (in words) (MCF-7 cells [2]): reliable blockage of the migration; EC50 ([4]; Homo sapiens, MCF7, MTT, 48 h incubation, read-out: EC50, MCF-7 cells, 48 h incubation (antiproliferative effect)): 780 ± 320 nM; inhibitory effect on the formation of colonies (MCF-7 cells [5]): 30.73 ± 0.49 % of the control
C=C(C)CCCC1(C)OC(=O)C23CCC4C(=CCC5C(C)(C)C(OC6OCC(OS(=O)(=O)O)C(O)C6OC6OCC(OC7OC(CO)C(O)C(OC8OC(CO)C(O)C(OC)C8O)C7O)C(O)C6OC6OCC(O)C(O)C6O)CCC45C)C2(C)CC(OC(C)=O)C13 [djakonovioside C1, 3β-O-{3-O-methyl-β-D-glucopyranosyl-(1→3)-β-D-glucopyranosyl-(1→4)-[(1→2)-β-D-xylopyranosyl]-β-D-xylopyranosyl-(1→2)-4-O-sodium sulfate-β-D-xylopyranosyl}-16β-acetoxyholosta-7,25-dien] | 16.8 ± 0.76 | approximately 25 % of the control | 21.8 ± 0.72 | 38.6 ± 2.36 | 0.56 | 7670 ± 320 | 2.84 | 8.55 ± 0.04 | – | – | – | – | – | inhibitory effect on the formation and growth of colonies (MDA-MB-231 cells [3]; MDA-MB-231, concentration 1 μM): approximately 25 % of the control; hemolytic activity (in words) (human erythrocytes; listed as Djakonovioside C1): slightly lower activity; cytotoxicity on prolonged incubation (in words) [7]: did not lose cytotoxicity over time
COC1C(O)C(CO)OC(OC2C(O)C(COS(=O)(=O)O)OC(OC3C(C)OC(OC4C(OC5CCC6(C)C7CCC8(C)C(C(C)=O)CCC8(C)C7=CCC6C5(C)C)OCC(OS(=O)(=O)O)C4O)C(OC4OCC(O)C(O)C4O)C3O)C2O)C1O (stereo not drawn) [cucumarioside A3-2] | – | – | – | – | – | – | – | 17.9 ± 0.48 | moderate hemolytic activity; also recorded: low hemolytic activity | > 50 | > 50 | > 50 | > 50000 | cytotoxic activity against human tumor cell lines (in words) ([7]; MCF-7, T-47D, MDA-MB-231, concentration range up to 50 µM): not active
COC1C(O)C(CO)OC(OC2C(O)C(CO)OC(OC3C(C)OC(OC4C(OC5CCC6(C)C7CCC89C(=O)OC(C)(CC(=O)CC(C)C)C8C(OC(C)=O)CC9(C)C7=CCC6C5(C)C)OCC(OS(=O)(=O)O)C4O)C(OC4OCC(O)C(O)C4O)C3O)C2O)C1O (stereo not drawn) [cucumarioside A2-5] | – | – | – | – | 0.55 | – | 5.43 | 1.63 ± 0.13 | – | 5.81 ± 0.86 | 14 ± 1.03 | 25.7 ± 1.49 | 2580 ± 100 | Selectivity Index (SI), T-47D ([1]; ratio of IC50 for healthy (MCF-10A) and cancer cells): 2.41; inhibition of cell migration (scratch assay) (MDA-MB-231 cells [8]; 1 µM): about 85 % as compared to the control; inhibition of cell migration (scratch assay) (MDA-MB-231 cells [8]; listed as Cucumarioside A2-5, 1 µM): 85 % as compared to the control; cytotoxicity on prolonged incubation (in words) ([7]; incubation for 48 and 72 h, 1 on MDA-MB-231, 6 on T-47D and MDA-MB-231): did not lose cytotoxicity over time
